Results from patent publication US20250268903A1, “RXFP1 AGONISTS” (BRISTOL-MYERS SQUIBB COMPANY, priority 2021, published 2025).

molecular target: T1, human RXFP1 (Homo sapiens, UniProt Q9HBX9); experiment: hRXFP1 HEK293 cAMP assay (HTRF); type: cell-based; settings: HEK293 cells stably expressing human RXFP1, 30 min at room temperature
T1 construct: expressed in transfected cells
T1 sequence (Q9HBX9 1-757): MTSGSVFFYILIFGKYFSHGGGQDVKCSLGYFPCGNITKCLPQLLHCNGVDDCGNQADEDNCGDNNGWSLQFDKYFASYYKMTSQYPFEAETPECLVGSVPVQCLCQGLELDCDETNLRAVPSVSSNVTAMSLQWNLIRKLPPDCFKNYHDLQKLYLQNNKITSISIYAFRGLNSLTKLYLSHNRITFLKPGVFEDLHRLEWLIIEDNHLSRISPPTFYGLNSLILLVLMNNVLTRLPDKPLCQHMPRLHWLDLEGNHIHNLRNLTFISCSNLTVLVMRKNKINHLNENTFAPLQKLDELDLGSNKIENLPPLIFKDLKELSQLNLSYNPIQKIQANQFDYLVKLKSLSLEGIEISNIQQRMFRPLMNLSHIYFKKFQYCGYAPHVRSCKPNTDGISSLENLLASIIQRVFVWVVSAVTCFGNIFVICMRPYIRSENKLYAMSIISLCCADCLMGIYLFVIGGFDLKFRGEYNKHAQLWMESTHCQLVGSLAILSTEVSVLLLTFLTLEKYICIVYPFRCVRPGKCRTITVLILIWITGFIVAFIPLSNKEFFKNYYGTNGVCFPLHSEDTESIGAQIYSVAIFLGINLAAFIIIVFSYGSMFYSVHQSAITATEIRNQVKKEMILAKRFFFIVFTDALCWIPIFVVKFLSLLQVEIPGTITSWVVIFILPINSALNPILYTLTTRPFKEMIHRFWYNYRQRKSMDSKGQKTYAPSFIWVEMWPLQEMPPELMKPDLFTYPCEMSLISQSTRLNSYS
Method in brief: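 Intracellular cAMP was read by HTRF, with potency fitted to a 4-parameter logistic curve. Compound exposure (0.010 nM–50 μM final, 2% DMSO) lasted 30 min at room temperature. Cells were hRXFP1-HEK293 at 1500 per well in IBMX-containing (0.5 mM) HEPES-buffered HBSS.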

SMILES	EC50 [µM]
COc1ccc(S(=O)(=O)NC[C@H](C)O)cc1C(=O)N[C@@H]1C2CCC(/C2=C/C(F)(F)F)[C@@H]1C(=O)Nc1ccc(F)c(C(F)(F)F)c1 (stereo partly drawn) [Example 197, (1R,2S,3R,4R,Z)—N-(4-fluoro-3-(trifluoromethyl)phenyl)-3-(5-(N—((S)-2-hydroxypropyl)sulfamoyl)-2-methoxybenzamido)-7-(2,2,2-trifluoroethylidene) bicyclo[2.2.1]heptane-2-carboxamide]	0.918
COc1ccc(S(=O)(=O)N2CCOCC2)cc1C(=O)NC1C2CCC(/C2=C/C(F)(F)F)[C@@H]1C(=O)Nc1ccc(F)c(C(F)(F)F)c1 (stereo partly drawn) [Example 199, (2S,3R,7Z)-N-[4-fluoro-3-(trifluoromethyl)phe-nyl]-3-[2-methoxy-5-(morpholine-4-sulfonyl)benzamido]-7-(2,2,2-triflurooethylidene)bi-cyclo[2.2.1]heptane-2-carboxamide]	0.719
COc1ccc(S(=O)(=O)N2CCO[C@@H](CO)C2)cc1C(=O)NC1C2CCC(/C2=C/C(F)(F)F)[C@@H]1C(=O)Nc1ccc(F)c(C(F)(F)F)c1 (stereo partly drawn) [Example 200, (2S,3R,7Z)-N-[4-fluoro-3-(trifluoromethyl)phe-nyl]-3-(5-{[(2R)-2-(hydroxymethyl)mor-pholin-4-yl]sulfonyl}-2-methoxybenzamido)-7-(2,2,2-trifluoroethylidene)bi-cyclo[2.2.1]heptane-2-carboxamide]	0.203
COc1ccc(S(=O)(=O)N2CCO[C@@H](CO)C2)cc1C(=O)NC1C2CCC(/C2=C/C2CC2)[C@@H]1C(=O)Nc1ccc(F)c(C(F)(F)F)c1 (stereo partly drawn) [Example 201, (2S,3R,7Z)-7-(cyclopropylmethyli-dene)-N-[4-fluoro-3-(trifluoromethyl)phe-nyl]-3-(5-{[(2R)-2-(hydroxymethyl)mor-pholin-4-yl]sulfonyl}-2-methoxybenzamido) bicyclo[2.2.1]heptane-2-carboxamide]	0.014
COc1ccc(S(=O)(=O)N2CCS(=O)(=O)CC2)cc1C(=O)NC1C2CCC(/C2=C/C(F)(F)F)[C@@H]1C(=O)Nc1ccc(F)c(C(F)(F)F)c1 (stereo partly drawn) [Example 202, (2S,3R,7Z)-3-{5-[(1,1-dioxo-1λ^6-thiomorpholin-4-yl)sulfonyl]-2-methoxybenzamido}-N-[4-fluoro-3-(trifluoromethyl)phe-nyl]-7-(2,2,2-trifluoroethylidene)bi-cyclo[2.2.1]heptane-2-carboxamide]	0.186
COc1ccc(S(=O)(=O)N2CCNCC2)cc1C(=O)NC1C2CCC(/C2=C/C(F)(F)F)[C@@H]1C(=O)Nc1ccc(F)c(C(F)(F)F)c1 (stereo partly drawn) [Example 203, (2S,3R,7Z)-N-[4-fluoro-3-(trifluoromethyl)phe-nyl]-3-[2-methoxy-5-(piperazine-1-sulfonyl)benzamido]-7-(2,2,2-trifluoroethylidene)bi-cyclo[2.2.1]heptane-2-carboxamide]	0.858
COc1ccc(S(=O)(=O)N2CCN[C@@H](CO)C2)cc1C(=O)NC1C2CCC(/C2=C/C(F)(F)F)[C@@H]1C(=O)Nc1ccc(F)c(C(F)(F)F)c1 (stereo partly drawn) [Example 204, (2S,3R,7Z)-N-[4-fluoro-3-(trifluoromethyl)phe-nyl]-3-(5-{[(3R)-3-(hydroxymethyl)piper-azin-1-yl]sulfonyl}-2-methoxybenzamido)-7-(2,2,2-trifluoroethylidene)bi-cyclo[2.2.1]heptane-2-carboxamide]	0.341
COc1ccc(S(=O)(=O)N2CC3COCC3C2)cc1C(=O)NC1C2CCC(/C2=C/C(F)(F)F)[C@@H]1C(=O)Nc1ccc(F)c(C(F)(F)F)c1 (stereo partly drawn) [Example 205, (2S,3R,7Z)-N-[4-fluoro-3-(trifluoromethyl)phe-nyl]-3-(5-{hexahydro-1H-furo[3,4-c]pyrrole-5-sulfonyl}-2-methoxybenzamido)-7-(2,2,2-trifluoroethylidene)bi-cyclo[2.2.1]heptane-2-carboxamide]	0.611
COc1ccc(S(C)(=O)=O)cc1C(=O)N[C@@H]1C2CCC(C2=C(C)C)[C@@H]1C(=O)Nc1ccc(F)c(C(F)(F)F)c1 (stereo partly drawn) [Example 208, (2S,3R)-N-[4-fluoro-3-(trifluoromethyl)phenyl]-3-(5-methanesulfonyl-2-methoxybenzamido)-7-(propan-2-ylidene)bicyclo[2.2.1] heptane-2-carboxamide]	2.6
CCN1CCN(S(=O)(=O)c2ccc(OC)c(C(=O)N[C@H]3[C@@H](C(=O)Nc4ccc(F)c(C(F)(F)F)c4)[C@H]4CC[C@@H]3/C4=C\C(F)(F)F)c2)CC1 [Example 209]	0.603
COc1ccc(S(=O)(=O)N2CCN3C(=O)CCC3C2)cc1C(=O)N[C@H]1[C@@H](C(=O)Nc2ccc(F)c(C(F)(F)F)c2)[C@H]2CC[C@@H]1/C2=C\C(F)(F)F (stereo partly drawn) [Example 210, (1R,2S,3R,4R,7Z)-N-[4-fluoro-3-(trifluoromethyl)phenyl]-3-[2-methoxy-5-({6-oxo-octabydropyrrolo [1,2-a]piperazin-2-yl}sulfonyl)benzamido]-7-(2,2,2-trifluoroethylidene) bicyclo[2.2.1] heptane-2-carboxamide]	0.237

The remaining molecules from weak to strong by EC50, led by results:

EC50 [µM]	SMILES
3.05	COc1ccc(S(=O)(=O)Nc2nnn[nH]2)cc1C(=O)NC1C2CCC(/C2=C/C(F)(F)F)[C@@H]1C(=O)Nc1ccc(F)c(C(F)(F)F)c1 (stereo partly drawn) [Example 206, (2S,3R,7Z)-N-[4-fluoro-3-(trifluoromethyl)phe-nyl]-3-{2-methoxy-5-[(1H-1,2,3,4-tetrazol-5-yl)sulfamoyl]benza-mido}-7-(2,2,2-trifluoroethylidene)bi-cyclo[2.2.1]heptane-2-carboxamide]
1.92	COc1ccc(S(=O)(=O)NC2CCOC2)cc1C(=O)NC1C2CCC(/C2=C/C(F)(F)F)[C@@H]1C(=O)Nc1ccc(F)c(C(F)(F)F)c1 (stereo partly drawn) [Example 198, (2S,3R,7Z)-N-[4-fluoro-3-(trifluoromethyl)phe-nyl]-3-{2-methoxy-5-[(oxolan-3-yl)sulfamoyl]benza-mido}-7-(2,2,2-trifluoroethylidene)bi-cyclo[2.2.1]heptane-2-carboxamide]
0.89	COc1ccc(S(N)(=O)=O)cc1C(=O)N[C@@H]1C2CCC(C2=C(C)C)[C@@H]1C(=O)Nc1ccc(F)c(C(F)(F)F)c1 (stereo partly drawn) [Example 207, (2S,3R)-N-[4-fluoro-3-(trifluoromethyl)phenyl]-3-(2-methoxy-5-sulfamoylbenzamido)-7-(propan-2-ylidene)bicyclo[2.2.1] heptane-2-carboxamide]
0.589	COc1ccc(S(=O)(=O)N2CCN[C@H](CO)C2)cc1C(=O)N[C@H]1[C@@H](C(=O)Nc2ccc(F)c(C(F)(F)F)c2)[C@H]2CC[C@@H]1/C2=C\C(F)(F)F [Example 212, (1R,2S,3R,4R,7Z)-N-[4-fluoro-3-(trifluoromethyl)phenyl]-3-(5-{[(3S)-3-(hydroxymethyl)piperazin-1-yl]sulfonyl}-2-methoxybenzamido)-7-(2,2,2-trifluoroethylidene) bicyclo[2.2.1] heptane-2-carboxamide]
0.551	COc1ccc(S(=O)(=O)N2CCN(CCCO)CC2)cc1C(=O)N[C@H]1[C@@H](C(=O)Nc2ccc(F)c(C(F)(F)F)c2)[C@H]2CC[C@@H]1/C2=C\C(F)(F)F [Example 211, (1R,2S,3R,4R,7Z)-N-[4-fluoro-3 (trifluoromethyl)phenyl]-3-(5-{[4-(3-hydroxypropyl)piperazin-1-yl]sulfonyl}-2-methoxybenzamido)-7-(2,2,2-trifluoroethylidene) bicyclo[2.2.1] heptane-2-carboxamide]
